The target of one data set is CSK (Homo sapiens, UniProt P41240). In words: Global quantitative proteomics. The conditions noted are these: MOLT-4 cells, 1 μM, 5 h. In kind it is cell-based.
For a further data set, the target named is CDK17 (Homo sapiens, UniProt Q00537). In words: Global quantitative proteomics. Conditions: MOLT-4 cells, 1 μM, 5 h, relative protein abundance. In kind it is cell-based.
For another data set, the target named is LIMK2 (Homo sapiens, UniProt P53671). Description: Global quantitative proteomics. In kind it is cell-based. Conditions: MOLT-4 cells, 1 μM, 5 h, relative protein abundance.
The next data set concerns the target LYN (Homo sapiens, UniProt P07948). Format: cell-based. The conditions noted are these: HEK293T cells, 1 μM, 5 h.
The target in another data set is YES1 (Homo sapiens, UniProt P07947). Format: cell-based. The conditions noted are these: HEK293T cells, 1 μM, 5 h.
The target of data set [1] is T1, GCK (Homo sapiens, UniProt Q12851).
T1 sequence (Q12851 1-820): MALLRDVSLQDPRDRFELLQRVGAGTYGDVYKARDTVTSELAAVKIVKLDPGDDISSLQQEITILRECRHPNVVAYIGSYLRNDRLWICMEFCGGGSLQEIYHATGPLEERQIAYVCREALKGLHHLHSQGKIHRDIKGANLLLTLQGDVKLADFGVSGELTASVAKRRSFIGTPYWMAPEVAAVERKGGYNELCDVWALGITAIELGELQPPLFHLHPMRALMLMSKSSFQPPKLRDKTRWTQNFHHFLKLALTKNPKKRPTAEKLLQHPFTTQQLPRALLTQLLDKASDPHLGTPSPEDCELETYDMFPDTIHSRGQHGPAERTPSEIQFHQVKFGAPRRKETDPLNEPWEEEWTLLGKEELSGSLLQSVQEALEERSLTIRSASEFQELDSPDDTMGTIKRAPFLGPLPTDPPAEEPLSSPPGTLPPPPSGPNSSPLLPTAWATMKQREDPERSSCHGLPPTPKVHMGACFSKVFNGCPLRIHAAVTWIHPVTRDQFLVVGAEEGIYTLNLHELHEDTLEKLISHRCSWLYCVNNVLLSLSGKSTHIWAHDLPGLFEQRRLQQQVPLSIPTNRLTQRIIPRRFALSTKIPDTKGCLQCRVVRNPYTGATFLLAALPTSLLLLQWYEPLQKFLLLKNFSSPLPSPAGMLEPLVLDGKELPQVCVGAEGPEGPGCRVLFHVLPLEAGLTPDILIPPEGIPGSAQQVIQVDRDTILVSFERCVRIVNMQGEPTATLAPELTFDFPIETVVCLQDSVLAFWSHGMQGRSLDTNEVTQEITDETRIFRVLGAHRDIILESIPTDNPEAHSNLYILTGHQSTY
In words: Global quantitative proteomics, degradation of GCK. Conditions: 1 μM, 5 h. Format: cell-based.

For a further data set, the target named is IRAK1 (Homo sapiens, UniProt P51617). In kind it is cell-based. Conditions: HEK293T cells, 1 μM, 5 h.
The target in data set [2] is T1, GCK. Description: KiNativ live cell profiling. In kind it is cell-based. The conditions noted are these: CRBN−/− MOLT-4 cells, 1 μM, 5 h.
The test system of another data set is MOLT-4 cells. In words: Time-course RNA-sequencing. Format: cell-based, human. The conditions noted are these: for transcript levels: 1 μM.
Another data set concerns the target FLAG-tagged CRBN (Homo sapiens, UniProt Q96SW2). Description: FLAG-CRBN AP-MS, proteins enriched with CRBN. The conditions noted are these: HEK293T cells, 1 μM, 5 h, relative to SB1-G-187 and WH-10417–099. Format: cell-based.
The target of another data set is BUB1 (Homo sapiens, UniProt O43683). In kind it is cell-based. Conditions: MOLT-4 and MM.1S cell lines.
In the next data set the target is T2, AURKA (Aurora A) (Homo sapiens, UniProt O14965).
T2 sequence (O14965 1-403): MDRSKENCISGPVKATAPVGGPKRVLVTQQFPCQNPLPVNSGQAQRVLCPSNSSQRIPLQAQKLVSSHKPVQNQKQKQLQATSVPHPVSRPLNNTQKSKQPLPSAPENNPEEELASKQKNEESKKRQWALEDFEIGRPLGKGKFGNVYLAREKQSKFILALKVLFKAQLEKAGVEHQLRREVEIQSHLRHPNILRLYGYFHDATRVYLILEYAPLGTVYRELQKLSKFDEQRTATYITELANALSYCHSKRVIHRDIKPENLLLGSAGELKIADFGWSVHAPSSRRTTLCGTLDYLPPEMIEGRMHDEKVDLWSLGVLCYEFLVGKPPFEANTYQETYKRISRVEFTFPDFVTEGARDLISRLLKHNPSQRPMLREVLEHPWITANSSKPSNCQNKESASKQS
In words: Global quantitative proteomics and immunoblot, degradation of AURKA. The conditions noted are these: MOLT-4 cells 1 μM 5 h proteomics; validated by immunoblotting in MM.1S cells. In kind it is cell-based. A general note: Immunoblotting shows a protein as a band on a membrane.

The subject of data set [3] is MM.1S multiple myeloma cell line. In words: CellTiter-Glo viability assay. Format: cell-based, human. Conditions: MM.1S cells, 72 h, compared with parental inhibitor alisertib. Background: In ATP-based viability assays light output follows the ATP content of the culture.

The structures appear in SMILES notation. “Also recorded” adds a separate entry of the source.

CSK, sequence (P41240 whole entry): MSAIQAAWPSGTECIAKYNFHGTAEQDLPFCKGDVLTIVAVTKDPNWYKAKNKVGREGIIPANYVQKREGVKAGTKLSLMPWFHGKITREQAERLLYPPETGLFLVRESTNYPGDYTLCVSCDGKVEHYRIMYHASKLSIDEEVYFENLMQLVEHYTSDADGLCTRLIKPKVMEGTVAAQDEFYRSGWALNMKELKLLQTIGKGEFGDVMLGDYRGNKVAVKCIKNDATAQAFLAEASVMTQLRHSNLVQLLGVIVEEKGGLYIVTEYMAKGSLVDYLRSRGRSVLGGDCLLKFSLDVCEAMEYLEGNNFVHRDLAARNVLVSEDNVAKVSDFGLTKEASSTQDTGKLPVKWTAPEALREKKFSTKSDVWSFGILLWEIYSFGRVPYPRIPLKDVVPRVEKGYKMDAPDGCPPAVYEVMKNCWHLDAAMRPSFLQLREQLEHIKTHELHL
CDK17, sequence (Q00537 whole entry): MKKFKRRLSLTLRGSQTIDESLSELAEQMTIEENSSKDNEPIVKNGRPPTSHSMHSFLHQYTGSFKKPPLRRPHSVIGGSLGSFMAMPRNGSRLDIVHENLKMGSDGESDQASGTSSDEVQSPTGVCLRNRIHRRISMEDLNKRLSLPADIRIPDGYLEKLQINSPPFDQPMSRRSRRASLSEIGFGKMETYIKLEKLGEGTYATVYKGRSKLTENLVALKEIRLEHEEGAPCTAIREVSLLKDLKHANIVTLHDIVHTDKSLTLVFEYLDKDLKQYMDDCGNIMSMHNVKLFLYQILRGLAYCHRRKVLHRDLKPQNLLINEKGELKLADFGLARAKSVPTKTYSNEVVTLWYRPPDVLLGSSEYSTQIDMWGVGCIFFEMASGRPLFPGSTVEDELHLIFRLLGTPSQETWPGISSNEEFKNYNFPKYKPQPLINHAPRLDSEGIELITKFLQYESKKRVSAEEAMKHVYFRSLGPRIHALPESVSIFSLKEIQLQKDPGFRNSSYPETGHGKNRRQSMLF
YES1, sequence (P07947 2-543 limits assumed): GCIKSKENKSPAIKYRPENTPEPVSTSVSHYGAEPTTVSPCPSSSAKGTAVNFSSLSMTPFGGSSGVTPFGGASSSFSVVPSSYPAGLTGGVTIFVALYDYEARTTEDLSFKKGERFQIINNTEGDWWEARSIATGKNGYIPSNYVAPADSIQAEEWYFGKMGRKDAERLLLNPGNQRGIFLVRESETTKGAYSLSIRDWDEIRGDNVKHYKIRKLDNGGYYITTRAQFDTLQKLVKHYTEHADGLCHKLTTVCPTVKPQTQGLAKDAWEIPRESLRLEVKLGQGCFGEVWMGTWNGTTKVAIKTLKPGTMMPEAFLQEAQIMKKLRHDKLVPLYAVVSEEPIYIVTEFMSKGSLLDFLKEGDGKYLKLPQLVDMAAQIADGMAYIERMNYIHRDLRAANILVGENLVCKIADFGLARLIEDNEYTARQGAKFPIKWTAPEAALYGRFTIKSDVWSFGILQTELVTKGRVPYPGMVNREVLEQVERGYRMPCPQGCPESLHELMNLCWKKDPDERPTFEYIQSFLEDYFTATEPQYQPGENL
YES1, sequence (Q96SW2 whole entry partner): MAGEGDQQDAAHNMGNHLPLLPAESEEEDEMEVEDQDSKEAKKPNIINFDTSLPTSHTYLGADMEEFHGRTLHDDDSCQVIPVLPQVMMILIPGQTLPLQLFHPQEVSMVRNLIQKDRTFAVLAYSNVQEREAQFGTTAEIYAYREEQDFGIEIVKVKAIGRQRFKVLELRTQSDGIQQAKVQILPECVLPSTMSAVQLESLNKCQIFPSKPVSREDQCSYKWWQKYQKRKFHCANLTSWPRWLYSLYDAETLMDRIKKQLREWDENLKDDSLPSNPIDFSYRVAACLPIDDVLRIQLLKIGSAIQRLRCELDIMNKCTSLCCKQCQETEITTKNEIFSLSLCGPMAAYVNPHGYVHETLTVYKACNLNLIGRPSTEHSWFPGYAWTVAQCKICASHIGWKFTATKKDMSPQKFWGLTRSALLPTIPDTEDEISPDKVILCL
YES1, sequence (Q16531 2-1140 partner limits assumed): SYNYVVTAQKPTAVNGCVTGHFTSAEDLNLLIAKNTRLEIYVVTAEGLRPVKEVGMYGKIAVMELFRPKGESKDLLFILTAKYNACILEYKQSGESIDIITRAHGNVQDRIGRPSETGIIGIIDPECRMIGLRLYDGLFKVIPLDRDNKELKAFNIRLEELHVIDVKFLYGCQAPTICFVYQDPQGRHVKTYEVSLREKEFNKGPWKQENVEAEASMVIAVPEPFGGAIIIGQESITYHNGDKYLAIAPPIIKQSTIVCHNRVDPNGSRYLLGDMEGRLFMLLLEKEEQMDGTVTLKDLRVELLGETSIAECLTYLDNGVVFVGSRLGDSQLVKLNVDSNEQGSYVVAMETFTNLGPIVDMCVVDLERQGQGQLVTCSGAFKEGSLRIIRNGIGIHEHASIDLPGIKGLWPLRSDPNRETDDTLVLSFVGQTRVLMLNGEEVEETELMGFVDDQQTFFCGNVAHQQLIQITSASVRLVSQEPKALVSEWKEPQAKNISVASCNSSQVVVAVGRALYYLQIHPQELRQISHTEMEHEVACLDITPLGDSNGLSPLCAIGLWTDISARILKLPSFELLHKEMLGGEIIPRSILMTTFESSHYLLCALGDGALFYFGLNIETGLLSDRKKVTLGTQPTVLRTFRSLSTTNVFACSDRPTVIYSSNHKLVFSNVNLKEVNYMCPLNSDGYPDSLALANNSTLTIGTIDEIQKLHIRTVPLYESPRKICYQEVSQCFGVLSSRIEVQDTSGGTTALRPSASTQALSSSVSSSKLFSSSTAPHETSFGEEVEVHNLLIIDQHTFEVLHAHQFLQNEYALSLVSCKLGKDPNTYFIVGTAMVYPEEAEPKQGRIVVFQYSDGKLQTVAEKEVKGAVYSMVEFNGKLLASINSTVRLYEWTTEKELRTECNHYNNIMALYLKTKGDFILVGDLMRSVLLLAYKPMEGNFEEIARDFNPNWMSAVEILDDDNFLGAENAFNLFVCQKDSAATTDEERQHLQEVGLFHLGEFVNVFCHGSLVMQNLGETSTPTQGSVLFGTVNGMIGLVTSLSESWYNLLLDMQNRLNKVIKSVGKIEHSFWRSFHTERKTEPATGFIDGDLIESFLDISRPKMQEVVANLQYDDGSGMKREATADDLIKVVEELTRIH
LIMK2, sequence (P53671 whole entry): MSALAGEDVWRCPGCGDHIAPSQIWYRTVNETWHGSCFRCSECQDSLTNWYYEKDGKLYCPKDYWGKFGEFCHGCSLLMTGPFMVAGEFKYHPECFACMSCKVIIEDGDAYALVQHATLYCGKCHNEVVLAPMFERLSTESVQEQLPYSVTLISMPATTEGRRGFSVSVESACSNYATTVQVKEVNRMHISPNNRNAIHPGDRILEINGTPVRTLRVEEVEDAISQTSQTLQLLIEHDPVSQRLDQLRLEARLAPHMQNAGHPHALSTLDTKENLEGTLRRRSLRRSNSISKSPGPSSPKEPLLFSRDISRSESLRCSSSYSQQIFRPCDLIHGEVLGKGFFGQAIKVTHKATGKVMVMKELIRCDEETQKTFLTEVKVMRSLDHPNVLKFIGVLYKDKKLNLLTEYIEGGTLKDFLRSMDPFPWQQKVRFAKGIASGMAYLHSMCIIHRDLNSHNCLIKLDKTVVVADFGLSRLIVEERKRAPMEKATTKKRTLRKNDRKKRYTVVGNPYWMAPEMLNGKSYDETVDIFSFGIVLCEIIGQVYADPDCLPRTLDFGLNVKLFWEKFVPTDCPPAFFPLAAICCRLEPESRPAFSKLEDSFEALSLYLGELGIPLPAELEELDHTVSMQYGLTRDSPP
FLAG-tagged CRBN, sequence (Q96SW2 whole entry): as the sequence (Q96SW2 whole entry partner) above
FLAG-tagged CRBN, sequence (Q16531 2-1140 partner limits assumed): as the sequence (Q16531 2-1140 partner limits assumed) above
BUB1, sequence (O43683 whole entry): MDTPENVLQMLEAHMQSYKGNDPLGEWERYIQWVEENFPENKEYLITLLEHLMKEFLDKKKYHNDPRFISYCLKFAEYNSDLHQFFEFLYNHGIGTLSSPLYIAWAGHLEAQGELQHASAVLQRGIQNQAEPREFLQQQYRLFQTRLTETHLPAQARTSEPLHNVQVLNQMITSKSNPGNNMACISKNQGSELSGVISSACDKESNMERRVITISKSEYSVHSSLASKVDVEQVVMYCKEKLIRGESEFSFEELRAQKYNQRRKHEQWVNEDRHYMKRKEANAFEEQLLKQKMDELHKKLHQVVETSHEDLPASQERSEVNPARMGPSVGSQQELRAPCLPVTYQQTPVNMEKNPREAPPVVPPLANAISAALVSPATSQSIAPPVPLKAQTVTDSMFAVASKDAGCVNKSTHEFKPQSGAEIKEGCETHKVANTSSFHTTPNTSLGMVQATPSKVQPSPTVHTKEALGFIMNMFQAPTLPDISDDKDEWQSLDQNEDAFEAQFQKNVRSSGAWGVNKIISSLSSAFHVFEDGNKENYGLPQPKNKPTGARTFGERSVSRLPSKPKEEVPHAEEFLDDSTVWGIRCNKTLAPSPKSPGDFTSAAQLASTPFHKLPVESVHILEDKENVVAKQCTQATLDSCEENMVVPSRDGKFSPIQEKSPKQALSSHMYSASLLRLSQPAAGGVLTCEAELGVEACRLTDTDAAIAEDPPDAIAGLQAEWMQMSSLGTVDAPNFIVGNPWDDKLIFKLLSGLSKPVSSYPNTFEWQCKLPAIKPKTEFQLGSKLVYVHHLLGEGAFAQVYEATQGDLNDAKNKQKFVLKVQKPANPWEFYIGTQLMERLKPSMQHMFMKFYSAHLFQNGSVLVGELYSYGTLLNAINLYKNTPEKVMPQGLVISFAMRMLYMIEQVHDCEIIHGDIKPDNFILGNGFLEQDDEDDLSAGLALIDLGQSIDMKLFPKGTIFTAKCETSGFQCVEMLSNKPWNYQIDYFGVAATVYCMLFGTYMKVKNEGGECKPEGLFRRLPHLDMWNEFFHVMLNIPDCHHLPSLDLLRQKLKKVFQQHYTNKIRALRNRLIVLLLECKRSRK
BUB1, sequence (Q96SW2 whole entry partner): as the sequence (Q96SW2 whole entry partner) above
BUB1, sequence (Q16531 2-1140 partner limits assumed): as the sequence (Q16531 2-1140 partner limits assumed) above

Take `Cc1nc(Nc2ncc(C(=O)Nc3c(C)cccc3Cl)s2)cc(N2CCN(CC(=O)NCCCCNC(=O)COc3cccc4c3C(=O)N(C3CCC(=O)NC3=O)C4=O)CC2)n1` (stereo not shown) [DB-3-291]: the “selectivity among CSK-degrading compounds” value at CSK is reported as “greatest selectivity”. Moreover, at CSK (compared with the 15 library compounds that target CSK), the “degradation of CSK” value is given as “strongest degradation”.
As to `Cc1ncsc1-c1ccc([C@H](C)NC(=O)[C@@H]2C[C@@H](O)CN2C(=O)[C@@H](NC(=O)CCOCCOCCNc2nccc(-c3sc(C(C)(C)C)nc3-c3cccc(NS(=O)(=O)c4c(F)cccc4F)c3F)n2)C(C)(C)C)cc1` [DD-03–156], the “degradation of CDK17” value at CDK17 was “potent and selective degradation; also recorded: exquisite”. Also, the “degradation of LIMK2” value at LIMK2 was “potent and selective degradation”.
As to `Cc1ccc(C(=O)Nc2ccc(CN3CCN(CCCOCCOCCOCCNC(=O)COc4cccc5c4C(=O)N(C4CCC(=O)NC4=O)C5=O)CC3)c(C(F)(F)F)c2)cc1C#Cc1cnc2cccnn12` (stereo not shown) [SB1-G-187], the “LYN complex formation with CRBN and degradation” value at LYN is “complex formation and degradation”. The “YES1 complex formation with CRBN and degradation” value on YES1 was “complex formation and degradation”. In addition, the “degradation of GCK” value on GCK [1] is given as “degraded”. Also, at IRAK1, the “IRAK1 complex formation with CRBN and degradation” value was “complex formation and degradation”. Further, at GCK [2], the “GCK engagement, inhibition of probe binding” value amounted to 94 %I.
As to `CC(C)S(=O)(=O)c1ccccc1Nc1nc(Nc2ccc(N3CCN(CCOCCNC(=O)CNc4cccc5c4C(=O)N(C4CCC(=O)NC4=O)C5=O)CC3)cc2)ncc1Cl` (stereo not shown) [SK-3–91], the transcript levels result is “complete transcriptional collapse” in the data set on MOLT-4 cells (8 and 12 h time points); “largely unchanged” in the data set with MOLT-4 cells (up until the 4 h time point). Moreover, in the data set with MOLT-4 cells (4 h treatment), the “transcriptional changes of CAMKK2, DNAPK, IKKe and JAK2” value is given as “no upregulation”. At FLAG-tagged CRBN, the “enriched proteins in the CRBN AP-MS” value is “fewer enriched proteins”. Besides, on YES1, the “YES1 complex formation with CRBN and degradation” value is listed as “complex formation does not predict degradation”. In addition, the “degradation of BUB1” value at BUB1 is reported as “degraded”. On GCK [1], the “degradation of GCK” value is reported as “not degraded”. The “GCK engagement, inhibition of probe binding” value at GCK [2] is 50 %I.
For the molecule `COc1cc(Nc2ncc3c(n2)-c2ccc(Cl)cc2C(c2c(F)cccc2OC)=NC3)ccc1C(=O)NCCCOCCOCCOCCCNC(=O)COc1cccc2c1C(=O)N(C1CCC(=O)NC1=O)C2=O` (stereo not shown) [dAURK-4], the “degradation of AURKA” value at AURKA (Aurora A) is “potent and selective degradation”. Besides, the antiproliferative effects entry in data set [3] was “superior antiproliferative effects”.

Source of the values: publication PMC10294644 (Cell, 2020).
